What was measured:
[1] = species: Homo sapiens; experiment: Selectivity ratio of Ki for human CB1 to Ki for human CB2
[2] = molecular target: Cannabinoid receptor 1 (Homo sapiens, UniProt P21554); experiment: Displacement of [3H]CP 55940 from human CB1 receptor in cell free system
[3] = molecular target: Cannabinoid receptor 2 (Homo sapiens, UniProt P34972); experiment: Displacement of [3H]CP 55940 from human CB2 receptor in cell free system; details: read-out: Ki
Chain of Cannabinoid receptor 2 (P34972 whole entry): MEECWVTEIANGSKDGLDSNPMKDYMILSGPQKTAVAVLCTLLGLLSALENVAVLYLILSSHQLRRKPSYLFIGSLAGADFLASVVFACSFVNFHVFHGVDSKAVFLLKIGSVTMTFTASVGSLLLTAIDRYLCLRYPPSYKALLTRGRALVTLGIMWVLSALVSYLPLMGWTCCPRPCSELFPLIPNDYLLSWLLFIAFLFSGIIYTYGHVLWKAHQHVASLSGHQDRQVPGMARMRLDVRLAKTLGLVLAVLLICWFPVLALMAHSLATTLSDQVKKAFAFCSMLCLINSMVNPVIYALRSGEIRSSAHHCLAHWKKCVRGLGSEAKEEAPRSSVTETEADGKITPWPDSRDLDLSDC

Chain of Cannabinoid receptor 1 (P21554 whole entry): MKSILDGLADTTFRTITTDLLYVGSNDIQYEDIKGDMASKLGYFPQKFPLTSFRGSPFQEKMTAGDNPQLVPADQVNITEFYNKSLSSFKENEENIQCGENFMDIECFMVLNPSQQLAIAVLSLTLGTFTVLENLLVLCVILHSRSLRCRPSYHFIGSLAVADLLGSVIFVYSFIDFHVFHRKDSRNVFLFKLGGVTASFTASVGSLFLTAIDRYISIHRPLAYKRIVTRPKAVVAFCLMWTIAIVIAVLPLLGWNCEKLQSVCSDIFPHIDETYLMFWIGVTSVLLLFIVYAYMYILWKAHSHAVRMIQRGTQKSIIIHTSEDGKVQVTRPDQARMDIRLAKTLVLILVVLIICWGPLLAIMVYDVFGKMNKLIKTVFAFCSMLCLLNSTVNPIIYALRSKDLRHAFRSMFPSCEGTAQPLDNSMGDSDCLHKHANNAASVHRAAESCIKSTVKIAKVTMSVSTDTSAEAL

CCCCCCC1CCCc2c1cc1c(c2O)[C@@H]2CC(C)=CC[C@H]2C(C)(C)O1 (stereo not given in full)
log(ratioKi) [1]: 0.6
Ki [2]: 22.3 nM
Ki [3]: 5.4 nM

Cc1c(C(C)(C)C)s/c(=N\S(=O)(=O)c2cccc3ccccc23)n1C1CC1
log(ratioKi) [1]: 2.02
Ki [2]: 1700 nM
Ki [3]: 16 nM

CCCCCCC1(c2cc(O)c3c(c2)OC(C)(C)[C@@H]2CC=C(C)C[C@@H]32)CC1(Cl)Cl (stereo not given in full)
log(ratioKi) [1]: 0.19
Ki [2]: 1.8 nM
Ki [3]: 1.3 nM

CCCCCn1cc(C(=O)NC23CC4CC(CC(C4)C2)C3)c(=O)c2cccc(C)c21
log(ratioKi) [1]: > 3.3
Ki [2]: > 10000 nM
Ki [3]: 4.9 nM

COc1ccc(OC)c2c(=O)c(C(=O)NC34CC5CC(CC(C5)C3)C4)c[nH]c12
log(ratioKi) [1]: 1.6
Ki [2]: 2100 nM
Ki [3]: 52.6 nM

Cc1c(Cl)ccc2c(=O)c(C(=O)NC34CC5CC(CC(C5)C3)C4)c[nH]c12
log(ratioKi) [1]: 2.59
Ki [2]: > 10000 nM
Ki [3]: 25.5 nM

COCCn1c(C)c(C(C)(C)C)s/c1=N\C(=O)c1ccc(C(F)(F)F)cc1
log(ratioKi) [1]: 2.6
Ki [2]: 4100 nM
Ki [3]: 10 nM

CC1(C)C(C(=O)c2cn(CC3CCOCC3)c3ccc(N)cc23)C1(C)C
log(ratioKi) [1]: 2.05
Ki [2]: 1000 nM
Ki [3]: 9 nM

Cc1c(C(C)(C)C)s/c(=N\C(=O)c2ccc(OC(F)(F)F)cc2)n1CC1CC1
log(ratioKi) [1]: 2.28
Ki [2]: 1100 nM
Ki [3]: 5.7 nM

CCCCCCC1(c2cc(O)c3c(c2)OC(C)(C)[C@@H]2CC=C(C)C[C@@H]32)CC1
log(ratioKi) [1]: 0.07
Ki [2]: 1 nM
Ki [3]: 0.9 nM

Reference: ChEMBL document CHEMBL1667752 (Eur J Med Chem, 2011)
